# Data: patent US20120015925A1, “NOVEL BENZOTHIAZEPINE AND BENZOTHIEPINE COMPOUNDS” (ASAHI KASEI PHARMA CORPORATION, priority 2004, published 2012)
# What was measured:
# [1] = test system: rats fed cholesterol food; assay: Blood cholesterol lowering effect in rats fed cholesterol food; format: in vivo, rat; conditions: oral, twice per day, SD (IGS) male rats, serum 3 hours after final administration
# Experimental: In the present Test Example, a blood cholesterol lowering effect on rats fed cholesterol food was evaluated according to the method described in J. Lipid Res., 1995, 36, 1098-1105.
# That is, the food containing 0.4% cholesterol and 0.5% bile acid was given to SD (IGS) strain male rats at 7 to 9 weeks of age for 5 days in advance of the test date, to increase blood cholesterol levels. The rats in which the blood cholesterol level had been obviously elevated from the level before loading the cholesterol food were selected as the subjects in the test. Colestimide (brand name: Cholebine 70% granules, supplied from Mitsubishi Tokyo Pharmaceutical Inc.) which is an anion exchange resin drug was suspended in distilled water, and the test compound was dissolved or suspended in distilled water. They were orally administered forcibly twice per day everyday from the starting date (each n=8). The blood was collected from jugular vein 3 hours after the drug administration on the final day of the experiment, and the cholesterol level in serum was measured to examine the effect of the test compound. As a control, another group (n=8) was merely fed cholesterol food, to which distilled water (1 mL/kg) was administered and the same procedure was applied. The total cholesterol value and the HDL cholesterol value were measured using commercially available kits. The value obtained by subtracting the HDL cholesterol value from the total cholesterol value was regarded as an LDL+VLDL cholesterol value.
# [2] = test system: rats with partial ligation of the bile duct dosed bile acid; assay: Model for hepatic disorder associated with cholestasis (partial bile duct ligation model), Protocol A: AST, ALT, ALP; format: in vivo, rat
# Text: In the present Test Example, a model for the hepatic disorder caused by partial ligation of the bile duct was employed with reference to Kanno's method (Liver, 43, Suppl(1):A126, 2002).
# That is, to the SD (IGS) strain male rats at 7 to 10 weeks of age, the partial ligation of the bile duct was given with opening the abdominal cavity under anesthesia with pentobarbital. Before the operation, the blood was collected from femoral vein, in order to obtain the value before the administration. From the day after the operation, 200 mg/kg of bile acid and the test compound were orally administered forcibly twice per day for 3.5 days (Protocol A). Without giving the partial ligation of the bile duct, 200 mg/kg of bile acid and the test compound were also orally administered forcibly twice per day for 3.5 days (Protocol B). In both cases, the test compound was dissolved or suspended in distilled water or an aqueous solution of 1% HCO 60 (Nippon Chemicals). To the control group, saline was administered. As comparative examples, 25 mg/kg of cholestyramine (supplied from Sigma) or 50 mg/kg of ursodeoxycholic acid (supplied from Mitsubishi Pharma) was administered. For considering the effect of the operation, sham operation (sham group) was performed in some cases. The blood was collected from the abdominal aorta 6 hours after the drug administration on the final day of the experiment. AST (GOT), ALT (GPT) and ALP in the blood were measured using measurement kits (GOT II-HA Test Wako, GPT II-HA Test Wako and Alkaline Phosphor HA Test Wako, all were supplied from Wako Pure Chemical Industries) and using an automatic analyzer (Nitech ANALAYZER SUPER Z818).
# KKA^y/Ta Jcl male mice = assay: Obesity and fatty liver model: body weight and liver triglyceride; format: in vivo, mouse; conditions: for BODY WEIGHT (g) BEFORE ADMINISTRATION: 1 mg/kg group, baseline; for BODY WEIGHT (g) DIFFERENCE / BODY WEIGHT (g) TWO WEEKS / LIVER TRIGLYCERIDE: 1 mg/kg once a day for 2 weeks
# Experimental: In the present Test Example, an obesity and fatty liver model was employed with reference to the method described in WO02/09757.
# That is, KKA^y/Ta Jcl male mice at 10 weeks of age were used as obese mice (N=4 to 7). The test compound was dissolved or suspended in the aqueous solution of 1% HCO 60 (supplied from Nippon Chemicals). The aqueous solution of 1% HCO 60 (supplied from Nippon Chemicals) was used as the control. The consecutive administration was performed once a day for 2 weeks, and body weight was measured daily and compared with the body weight on the day before the administration. On the day after the final administration, the liver was removed, and a triglyceride concentration in liver tissue was measured using a measurement kit (Triglyceride Test Wako, supplied from Wako Pure Chemical Industries). The results are shown in the following Table 14 (Tables 14-1 to 14-3).
# Caco-2 cell = assay: Gastrointestinal toxicity: cytotoxicity against Caco-2 cell (LDH activity); format: cell-based, human; conditions: 2 hours, LDH activity in medium relative to cell lysis agent = 100%
# Experimental: That is, 10,000 cells/well of Caco-2 cells (purchased from ATCC) were seeded in a 96-well plate [MEM-E medium, 10% FBS (Fetal Bovine Serum), 1% NEAA (Non Essential Amino Acid) solution, supplied from Gibco]. After culturing for 48 hours, the test compound diluted with the medium was added to each well. After 2 hours, 50 μL of the medium was collected, and an LDH activity in the medium was measured using an LDH activity measurement kit (CytoTox96 Non-Radioactive Cytotoxicity Assay, supplied from Promega). Defining the LDH activity of the Caco-2 cells treated with a cell lysis agent as being 100%, the relative activity was calculated as a index of the cytotoxicity.
# [3] = test system: Wistar rats given choline-deficient food; assay: Steatohepatitis model: AST and ALT in blood; format: in vivo, rat; conditions: 3 mg/kg oral once a day for 2 weeks, n = 4, average ± standard error; for AST: control group (n = 6) 180 ± 46; for ALT: control group (n = 6) 245 ± 57
# Text: In the present Test Example, a steatohepatitis model was employed with reference to the method of Okan A et al. (Dig. Dis. Sci., 47:2389-2397, 2002).
# That is, choline-deficient food (supplied from Oriental Yeast Co., Ltd.) was given to Wistar rats at 7 weeks of age for two weeks to prepare a steatohepatitis model. The test compound was suspended in an aqueous solution of 0.5% methylcellulose (supplied from Wako Pure Chemical Industries), and the aqueous solution of 0.5% methylcellulose (supplied from Wako Pure Chemical Industries) was used as the control. They were orally administered once a day for consecutive 2 weeks. The blood was collected from the abdominal aorta on the day after the final drug administration. AST (GOT) and ALT (GPT) in the blood were measured using the measurement kits (GOT II-HA Test Wako and GPT II Test Wako, supplied from Wako Pure Chemical Industries) with an automatic analyzer (Nitech ANALAYZER SUPER Z818).
# [4] = Table 12-1, Protocol A, 1 mg/kg in 1% HCO 60, N=3, mean±standard error, control group 417 ± 185, sham 43 ± 1
# [5] = Table 12-1, Protocol A, 1 mg/kg in 1% HCO 60, N=3, mean±standard error, control group 589 ± 221, sham 141 ± 26
# [6] = Table 12-1, Protocol A, 1 mg/kg in 1% HCO 60, N=3, mean±standard error, control group 2318 ± 583, sham 665 ± 94
# [7] = Table 14-2, control group 44.1 ± 0.6
# [8] = Table 14-2, control group 0.7 ± 0.4
# [9] = Table 14-2, control group 44.8 ± 0.9
# [10] = Table 14-2, control group 103 ± 19
# [11] = Table 12-2, 1 mg/kg in 1% HCO 60, N=3, mean±standard error, control group 384 ± 156, sham 48 ± 5
# [12] = Table 12-2, 1 mg/kg in 1% HCO 60, N=3, mean±standard error, control group 643 ± 125, sham 128 ± 18
# [13] = Table 12-2, 1 mg/kg in 1% HCO 60, N=3, mean±standard error, control group 2204 ± 327, sham 630 ± 87
# [14] = Table 14-1, control group 42.8 ± 0.4
# [15] = Table 14-1, control group 42.0 ± 0.7
# [16] = Table 14-1, control group 94 ± 18
# [17] = Table 14-1, control group −0.8 ± 0.5
SMILES,LDL + VLDL REDUCTION RATE (%) IN CHOLESTEROL FED RAT MODEL (THERAPEUTIC MODEL) ([1]; 0.3 mg/kg per administration) [%],"ALT [2, 4] [IU/L]","AST [2, 5] [IU/L]","ALP [2, 6] [IU/L]",BODY WEIGHT (g) BEFORE ADMINISTRATION (KKA^y/Ta Jcl male mice; [7]) [g],BODY WEIGHT (g) DIFFERENCE (KKA^y/Ta Jcl male mice; [8]) [g],BODY WEIGHT (g) TWO WEEKS (KKA^y/Ta Jcl male mice; [9]) [g],LIVER TRIGLYCERIDE (KKA^y/Ta Jcl male mice; [10]) [mg/g],CELL TOXICITY AGAINST Caco2 3 μM (Caco-2 cell) [%],CELL TOXICITY AGAINST Caco2 10 μM (Caco-2 cell) [%],CELL TOXICITY AGAINST Caco2 30 μM (Caco-2 cell) [%],AST [3] [IU/L],ALT [3] [IU/L],"ALT [2, 11] [IU/L]","AST [2, 12] [IU/L]","ALP [2, 13] [IU/L]",BODY WEIGHT (g) BEFORE ADMINISTRATION (KKA^y/Ta Jcl male mice; [14]) [g],BODY WEIGHT (g) TWO WEEKS (KKA^y/Ta Jcl male mice; [15]) [g],LIVER TRIGLYCERIDE (KKA^y/Ta Jcl male mice; [16]) [mg/g],BODY WEIGHT (g) DIFFERENCE (KKA^y/Ta Jcl male mice; [17]) [g],also measured
C#CC[N+](C)(Cc1ccccc1)Cc1ccc(NC(=S)Nc2cccc(C3NC(CCCC)(CCCC)CS(=O)(=O)c4ccc(N(C)C)cc43)c2)cc1.[Br-] (racemic) [EXAMPLE 3448],20,181 ± 79,352 ± 210,1148 ± 332,44.1 ± 0.7,-2.0 ± 0.7,42.1 ± 3.2,74 ± 8,<1,<1,<1,134 ± 23,143 ± 79,,,,,,,,
CCCCC1(CCCC)CS(=O)(=O)c2ccc(N(C)C)cc2C(c2cccc(NC(=S)Nc3ccc(C[N+]45CCC(c6ccccc6)(CC4)CC5)cc3)c2)N1.[Br-] (racemic) [EXAMPLE 3696],25,,,,43.5 ± 1.3,-1.3 ± 0.3,42.2 ± 2.2,76 ± 12,<1,<1,<1,98 ± 23,145 ± 34,191 ± 21,325 ± 87,1209 ± 125,,,,,
"CCCCC1(CCCC)CS(=O)(=O)c2ccc(N(C)C)cc2C(c2cccc(NC(=S)CCCCC[N+]34CCC(CC3)CC4)c2)N1.[Br-] (centres unmarked) [EXAMPLE 1, 1-{5-[3-(3,3-dibutyl-7-dimethylamino-1,1-dioxo-2,3,4,5-tetrahydro-1,4-benzothiazepine-5-yl)phenylthiocarbamoyl]pentyl}-1-azoniabicyclo[2.2.2]octane bromide]",49,,,,,,,,,,,,,,,,43.0 ± 0.5,41.0 ± 0.6,71 ± 13,-1.9 ± 0.3,"LDL + VLDL REDUCTION RATE (%) IN CHOLESTEROL FED RAT MODEL (THERAPEUTIC MODEL) ([1]; 1 mg/kg per administration): 68.4%; ALT ([2]; Table 11, Protocol A, 0.1 mg/kg oral twice per day for 3.5 days, N=8, mean±standard error, control group 200 ± 81): 61 ± 4 IU/L; AST ([2]; Table 11, Protocol A, 0.1 mg/kg oral twice per day for 3.5 days, N=8, mean±standard error, control group 400 ± 160): 182 ± 42 IU/L; ALP ([2]; Table 11, Protocol A, 0.1 mg/kg oral twice per day for 3.5 days, N=8, mean±standard error, control group 1120 ± 410): 603 ± 78 IU/L"
CCCCC1(CCCC)CS(=O)(=O)c2ccc(N(C)C)cc2C(c2cccc(NC(=S)Nc3ccc(C[N+](C)(C)Cc4ccccc4)cc3)c2)N1.[Br-] (centres unmarked) [EXAMPLE 3440],36,155 ± 38,309 ± 37,1614 ± 189,44.6 ± 0.8,-0.7 ± 1.0,43.9 ± 1.8,88 ± 6,<1,<1,<1,125 ± 34,167 ± 93,,,,,,,,
CCCCC1(CCCC)CS(=O)(=O)c2ccc(N(C)C)cc2C(c2cccc(NC(=S)Nc3ccc(C[N+]4(Cc5ccccc5)CCC(O)CC4)cc3)c2)N1.[Br-] (centres unmarked) [EXAMPLE 3605],28,258 ± 219,487 ± 382,1489 ± 533,,,,,<1,<1,<1,80 ± 34,121 ± 36,,,,42.9 ± 1.1,41.4 ± 1.0,65 ± 7,-1.5 ± 0.4,
CCCCC1(CCCC)CS(=O)(=O)c2ccc(N(C)C)cc2C(c2cccc(NC(=S)Nc3ccc(C[n+]4ccc(C(C)(C)C)cc4)cc3)c2)N1.[Br-] (centres unmarked) [EXAMPLE 3713],41,,,,44.0 ± 1.1,-2.5 ± 0.6,41.5 ± 2.4,59 ± 33,<1,<1,<1,77 ± 37,118 ± 36,163 ± 96,280 ± 61,1008 ± 289,,,,,
